In EPA's ToxValDB 9.5:
Several values for one entry are separate records, joined by “and”; a condition that tells them apart may be missing. Identical values can stand only once.

What was measured:
[1] = test system: Cricetulus sp.; settings: for NOAEL: oral, gavage, Hamster
[2] = test system: Rattus norvegicus
[3] = test system: Rattus norvegicus; settings: oral
[4] = test system: Rattus norvegicus; settings: oral; for NOEL: Hershberger, duration: 10 days, gavage, Sprague-Dawley
[5] = test system: Canidae; settings: oral, diet, Dog Other
[6] = test system: Canidae; settings: oral, diet, M/F, Dog Other
[7] = test system: Mus musculus; settings: repeat dose other; oral
[8] = test system: Rattus norvegicus; settings: reproduction developmental, oral, M/F
[9] = test system: Oryctolagus sp.; settings: reproduction developmental; duration: 12 days; oral; gavage; M/F; New Zealand; gastrointestinal
[10] = test system: Rattus norvegicus; settings: oral; remark: listed apart in the source
[11] = test system: Neovison sp.; settings: repeat dose other; oral; Mink
[12] = test system: Rattus norvegicus; settings: repeat dose other; oral
[13] = test system: Homo sapiens; settings: clinical; duration: 5 minutes; inhalation; M; respiratory
[14] = test system: Mus musculus; settings: oral
[15] = test system: Mus musculus; settings: chronic; oral; M/F; lung and kidney histopathology
[16] = test system: Homo sapiens; settings: clinical, oral, diet
[17] = test system: Mus musculus
[18] = test system: Oryctolagus sp.; settings: acute; dermal; New Zealand
[19] = test system: Mus musculus; settings: uterotrophic; duration: 3 days; injection; intraperitoneal; Active
[20] = chronic, duration: 2 years, renal tubular epithelial vacuolation
[21] = short-term, duration: 28 days, gavage, M, Sprague-Dawley, Clinical Observation: Salivationlocomotor activity decrease, Soft stool/diarrhea + Urinalysis: Brownish urine Occult blood + Hematology: PT …
[22] = increased incidence of renal tubular dilation in f3b offspring
[23] = forelimb hair loss + Parturition mortality
[24] = chronic, duration: 14 weeks, inhalation, F, B6C3F1
[25] = chronic, duration: 14 weeks, inhalation, M, B6C3F1
[26] = chronic, duration: 14 weeks, inhalation, F, Fischer 344
[27] = chronic, duration: 14 weeks, inhalation, M, Fischer 344

SMILES: COCCl [Chloromethyl methyl ether]
- LC50 ([1]; acute, inhalation, Golden Syrian): 214 mg/m3
- LC50 ([2]; acute, inhalation, Sprague-Dawley): 181 mg/m3
- LD50 ([2]; acute, oral): 817 mg/kg
- NOAEL ([2]; developmental, duration: 15 days, inhalation, Sprague-Dawley): 132 mg/m3
- NOAEL ([2]; reproduction developmental, duration: 10 days, inhalation, F, Sprague-Dawley): 0.006 mg/L
- NOEL ([3]; subchronic, duration: 42 days, gavage, M, CD(SD), Body Weight Changes: decrease + Food Consumption: decrease + Urinalysis: Osm decrease + Hematology: RET increase, WBC increase, LYMPH …): < 15 mg/kg-day

SMILES: N#Cc1c(Cl)c(Cl)c(Cl)c(C#N)c1Cl [Chlorothalonil]
- NOEL ([4]; inactive + Negative + Negative + neither + see note): 175 mg/kg-day
- NOEL ([5]; chronic, duration: 2 years, Kidney: Effects): 1.5 mg/kg-day
- LEL [6, 20]: 3 mg/kg-day
- NOEL [6, 20]: 1.5 mg/kg-day
- NOAEL [3, 21]: < 100 mg/kg-day
- NOEL [3, 21]: < 100 mg/kg-day

SMILES: CCCCCCOC(=O)c1ccccc1C(=O)OCCCCCC [Dihexyl phthalate]
- LD50 ([2]; acute, oral): 38.9 mg/kg and 29.6 mg/kg
- LOAEL [7]: 550 mg/kg-day
- NOAEL [7]: 55 mg/kg-day

SMILES: O=C(O)CNCP(=O)(O)O [Glyphosate]
- NOEL ([4]; inactive + Negative + Negative + neither + decrease in AST and liver at 1000 / decrease in bw 10% at 1000 / testosterone dose-dependent …): 300 mg/kg-day
- LEL [8, 22]: 30 mg/kg-day
- NOEL [8, 22]: 10 mg/kg-day
- NOEL ([3]; subchronic, diet, F, Fischer 344, Clinical Observation: Diarrhea + Body Weight Changes: decrease(>25000 ) + Hematology: Hct increase, RBC increase, Hgb increase + Blood …): 213 mg/kg-day
- NOEL ([3]; subchronic, diet, M/F, Fischer 344, Clinical Observation: Diarrhea + Body Weight Changes: decrease(>25000 ) + Hematology: Hct increase, RBC increase, Hgb increase + Blood …): < 300 mg/kg-day
- NOAEL [9]: 100 mg/kg-day
- NOAEL ([10]; chronic, duration: 24 months, diet, F, albino Sprague Dawley, gastrointestinal): 113 mg/kg-day
- NOAEL ([10]; chronic, duration: 24 months, diet, M/F, albino Sprague Dawley, gastrointestinal): 113 mg/kg-day

SMILES: ClC1=C(Cl)[C@]2(Cl)[C@@H]3[C@@H](Cl)[C@H]4O[C@H]4[C@@H]3C1(Cl)C2(Cl)Cl [Heptachlor epoxide B]
- LOAEL ([5]; chronic, duration: 60 weeks, Liver: Increased relative weight): 0.0125 mg/kg-day
- LEL ([6]; chronic, duration: 60 weeks, increased liver-to-body weight ratio in both males and females): 0.0125 mg/kg-day

SMILES: Oc1c(Cl)cc(Cl)c(Cl)c1Cc1c(O)c(Cl)cc(Cl)c1Cl [Hexachlorophene]
- LOAEL ([5]; subchronic, duration: 13 weeks, Nervous system: Effects): 0.75 mg/kg-day
- LEL ([6]; subchronic, duration: 13 weeks, swollen salivary gland, status spongiosis in brain and optic nerve): 0.75 mg/kg-day

SMILES: [CH3][Hg][Cl] [Methylmercuric(II) chloride]
- LOAEL [11]: 0.025 mg/kg-day
- NOAEL [11]: 0.015 mg/kg-day
- LOAEL [12]: 0.16 mg/kg-day
- NOAEL [12]: 0.032 mg/kg-day

SMILES: [P] [Phosphorus]
- LOAEL [8, 23]: 0.075 mg/kg-day
- NOAEL [8, 23]: 0.015 mg/kg-day
- LOAEL [13]: 187 mg/m3
- NOAEL ([10]; reproduction developmental, duration: 204 days, gavage, M/F, Sprague-Dawley, reproductive): 0.015 mg/kg-day

SMILES: O=C1OC(=O)c2ccccc21 [Phthalic anhydride]
- LOAEL ([14]; chronic, duration: 104 weeks, diet, Kidney: Histopathology + Lung: Histopathology): 1560 mg/kg-day
- LOAEL [15]: 1560 mg/kg-day

SMILES: CCN(CC)c1nc(C)cc(OP(=S)(OC)OC)n1 [Pirimiphos-methyl]
- NOEL ([16]; duration: 28 days, M, Borderline ChE depression): 0.25 mg/kg-day
- NOEL ([16]; duration: 56 days, M/F, Transient plasma ChE depression): 0.25 mg/kg-day

SMILES: ClC(Cl)=C(Cl)Cl [Tetrachloroethylene]
- NOAEL ([14]; subchronic, duration: 6 weeks, Liver: Hepatotoxicity): 14 mg/kg-day
- LOAEL [7]: 7 mg/kg-day
- NOAEL [7]: 1.4 mg/kg-day

SMILES: CC(=O)[O-].CC(=O)[O-].[O]=[U+2]=[O] [Uranyl acetate]
- LOAEL [7]: 6.13 mg/kg-day
- NOAEL [7]: 3.07 mg/kg-day

SMILES: CC1=CCC2CC1C2(C)C (stereo not drawn) [alpha-Pinene]
- NOAEL ([1]; developmental, duration: 10 days): 600 mg/kg-day
- NOAEL ([1]; reproduction developmental, duration: 10 days, F): 600 mg/kg-day
- NOAEL ([1]; reproduction developmental): 600 mg/kg-day
- LOAEL [17, 24]: 557 mg/m3
- NOAEL [17, 24]: 279 mg/m3
- LOAEL [17, 25]: 557 mg/m3
- NOAEL [17, 25]: 279 mg/m3
- NOAEL ([17]; reproduction developmental, duration: 10 days, oral, gavage, F, CD1): 560 mg/kg-day
- LD50 [18]: > 5000 mg/kg
- LD50 ([2]; acute, oral, Wistar): 3700 mg/kg
- LOAEL [2, 26]: 340 mg/kg-day
- NOAEL [2, 26]: 170 mg/kg-day
- LOAEL [2, 27]: 42 mg/kg-day
- NOAEL [2, 27]: 21 mg/kg-day
- NOAEL ([2]; developmental, duration: 10 days, oral, gavage, Wistar): 260 mg/kg-day
- NOAEL ([2]; reproduction developmental, duration: 10 days, oral, gavage, F, Wistar): 260 mg/kg-day

SMILES: ClC1C(Cl)C(Cl)C(Cl)C(Cl)C1Cl (stereo not drawn) [beta-Hexachlorocyclohexane]
- LEL [19]: 100 mg/kg-day
- LEL ([4]; uterotrophic, duration: 3 days, Active): 3 mg/kg-day
- NOAEL ([10]; short-term, duration: 2 weeks, diet, M/F, Wistar, neurological): 8 mg/kg-day
- LOAEL ([10]; subchronic, duration: 13 weeks, diet, M/F, Wistar, hepatic): 0.18 mg/kg-day
